Experimental data reported in US20220119383A1 (Gilead Sciences, Inc., priority 2018, published 2022).

Biological target: T1, α4β7 integrin (Homo sapiens, UniProt P13612+P26010)
T1 construct: monitoring the capture of α4β7 integrin expressing cells; endogenous in cells; host or cells: RPMI8866 cells
T1 sequence (P13612 34-1032): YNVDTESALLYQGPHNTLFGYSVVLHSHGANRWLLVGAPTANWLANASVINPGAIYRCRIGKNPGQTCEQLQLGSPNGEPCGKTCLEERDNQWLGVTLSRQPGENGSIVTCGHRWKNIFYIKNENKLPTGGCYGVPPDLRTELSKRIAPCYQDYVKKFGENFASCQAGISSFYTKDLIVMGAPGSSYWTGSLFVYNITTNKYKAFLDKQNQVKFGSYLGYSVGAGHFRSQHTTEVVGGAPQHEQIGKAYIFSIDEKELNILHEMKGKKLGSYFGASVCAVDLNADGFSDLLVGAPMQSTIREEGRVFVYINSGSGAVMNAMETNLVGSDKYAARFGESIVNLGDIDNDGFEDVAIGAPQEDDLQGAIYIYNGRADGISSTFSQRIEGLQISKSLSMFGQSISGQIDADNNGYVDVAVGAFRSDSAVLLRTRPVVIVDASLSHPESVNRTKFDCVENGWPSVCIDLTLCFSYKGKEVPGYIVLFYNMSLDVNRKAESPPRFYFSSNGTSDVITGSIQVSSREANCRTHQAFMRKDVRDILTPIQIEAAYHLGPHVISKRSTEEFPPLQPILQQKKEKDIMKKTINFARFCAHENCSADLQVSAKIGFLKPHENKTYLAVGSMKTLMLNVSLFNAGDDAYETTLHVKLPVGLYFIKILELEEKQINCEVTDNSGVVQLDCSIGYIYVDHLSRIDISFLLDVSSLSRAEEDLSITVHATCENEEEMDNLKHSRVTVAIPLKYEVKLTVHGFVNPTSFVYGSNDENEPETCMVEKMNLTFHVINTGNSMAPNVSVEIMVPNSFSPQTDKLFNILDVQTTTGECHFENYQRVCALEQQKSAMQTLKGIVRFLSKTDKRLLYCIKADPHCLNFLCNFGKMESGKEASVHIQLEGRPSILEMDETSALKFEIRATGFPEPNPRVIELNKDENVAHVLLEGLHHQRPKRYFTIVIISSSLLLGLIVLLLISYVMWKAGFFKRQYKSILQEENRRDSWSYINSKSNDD
T1 sequence (P26010 20-798): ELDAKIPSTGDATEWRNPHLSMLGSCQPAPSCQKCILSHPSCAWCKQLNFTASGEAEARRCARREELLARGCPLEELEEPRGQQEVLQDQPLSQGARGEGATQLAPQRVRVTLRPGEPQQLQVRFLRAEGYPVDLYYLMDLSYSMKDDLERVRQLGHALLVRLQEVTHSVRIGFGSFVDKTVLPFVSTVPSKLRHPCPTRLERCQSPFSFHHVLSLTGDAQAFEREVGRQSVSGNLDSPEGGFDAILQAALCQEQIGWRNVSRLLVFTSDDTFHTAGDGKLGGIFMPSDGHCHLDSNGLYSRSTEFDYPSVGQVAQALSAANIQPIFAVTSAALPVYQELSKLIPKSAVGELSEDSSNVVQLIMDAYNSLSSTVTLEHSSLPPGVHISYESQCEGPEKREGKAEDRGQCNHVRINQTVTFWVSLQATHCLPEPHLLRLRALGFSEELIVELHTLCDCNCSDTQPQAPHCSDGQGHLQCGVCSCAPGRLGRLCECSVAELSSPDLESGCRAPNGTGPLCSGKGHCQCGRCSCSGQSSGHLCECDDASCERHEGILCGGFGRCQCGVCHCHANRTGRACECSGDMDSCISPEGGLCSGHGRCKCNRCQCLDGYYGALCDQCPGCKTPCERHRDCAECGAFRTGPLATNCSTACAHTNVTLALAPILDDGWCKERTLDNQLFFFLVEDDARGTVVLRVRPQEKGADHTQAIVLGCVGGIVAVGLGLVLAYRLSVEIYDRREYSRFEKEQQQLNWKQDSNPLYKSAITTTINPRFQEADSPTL
Assay: α4β7 integrin cell capture assay
Format: cell-based
Description: The potency of inhibitors in preventing α4β7 integrin interaction with MadCAM-1 was measured by monitoring the capture of α4β7 integrin expressing cells on a recombinant MadCAM-1 extracellular domain-coated plate. […] The plates were then washed with PBS and blocked with 3% BSA for 2 hours before being washed again.
RPM18866 cells were spun down and re-suspended in assay medium (DMEM+0.5% FBS+0.5 mM MnCl2) at a density of 0.5×10^6 cells/mL. […] The plates were incubated at 37° C. for 1 hour. 50 μL of cells were transferred to the blocked, MadCAM-1-coated plates and incubated for 30 minutes at 37° C. […] The plates were incubated for 90 minutes at room temperature. The plates were then washed 3 times with 70 μL of PBS per well and imaged on a Cellomics ArrayScan instrument. The cells that were bound to the plate were counted and plotted against the compound concentration to determine the EC50 of the test compounds.

[1] = Table 1, capture of RPM18866 cells on MadCAM-1 extracellular domain-coated plate
[2] = Table 2, capture of RPM18866 cells on MadCAM-1 extracellular domain-coated plate

Row | Compound | EC50 [1] [nM] | also measured
1 | O=C(N[C@@H](Cc1ccc(-c2ncc3ccccc3c2Cl)c2ncccc12)C(=O)O)c1c(F)cccc1F [Example 66, (S)-3-(8-(4-chloroisoquinolin-3-yl)quinolin-5-yl)-2-(2,6-difluorobenzamido)propanoic acid] | 18.9 | 
2 | N#Cc1ccc(-c2ccc(C[C@H](NC(=O)c3c(F)cc(N4CCOC[C@H]4C(F)(F)F)cc3F)C(=O)O)c3cccnc23)c(Cl)c1 (single isomer, unassigned) [Example 83] | 32.9 | 
3 | N#Cc1ccc(-c2ccc(C[C@H](NC(=O)c3c(F)cc(N4CCOC[C@@H]4C(F)(F)F)cc3F)C(=O)O)c3cccnc23)c(Cl)c1 (single isomer, unassigned) [Example 82] | 4.7 | 
4 | Cc1c(-c2ccc(C[C@H](NC(=O)c3c(F)cc(N[C@H](C)C(F)(F)F)cc3F)C(=O)O)c3cccnc23)c(=O)n(C)c2ccc(F)cc12 (atropisomer, axis not shown) [Example 187] |  | EC50 [2]: 1.1 nM
5 | Cc1cc(N2CCOC[C@@H]2C(F)(F)F)cc(F)c1C(=O)N[C@@H](Cc1ccc(-n2c(=O)c3cccnc3n(C)c2=O)c2ncccc12)C(=O)O [Example 402] |  | EC50 (capture of α4β7 integrin expressing RPM18866 cells on MadCAM-1 extracellular domain-coated plate): 0.1 nM
6 | O=C(N[C@@H](Cc1ccc(-c2cccc3c2OCCO3)c2ncccc12)C(=O)O)c1c(F)cc(NS(=O)(=O)c2ccc(-c3ccnc(F)c3)cc2)cc1F [Example 51] | 2.9 | 
7 | N#Cc1ccc(-c2ccc(C[C@H](NC(=O)c3c(F)cc(NC(C4CC4)C(F)(F)F)cc3F)C(=O)O)c3cccnc23)c(Cl)c1 (some centres unmarked) [Example 89] | 14.4 | 
8 | CC[C@@H](Nc1cc(F)c(C(=O)N[C@@H](Cc2ccc(-c3cn(C)c(=O)n(C)c3=O)c3ncccc23)C(=O)O)c(F)c1)C(F)(F)F [Example 113, (S)-2-(2,6-difluoro-4-(((R)-1,1,1-trifluorobutan-2-yl)amino)benzamido)-3-(8-(1,3-dimethyl-2,4-dioxo-1,2,3,4-tetrahydropyrimidin-5-yl)quinolin-5-yl)propanoic acid] | 1.2 | 
9 | COc1cc(F)cc(C(F)(F)F)c1-c1ccc(C[C@H](NC(=O)c2c(F)cccc2F)C(=O)O)c2cccnc12 (single isomer, unassigned) [Example 7] | 1.9 | 
10 | CC[C@@H](Nc1cc(F)c(C(=O)N[C@@H](Cc2ccc(-c3c(N4CCC4)cc(C)n(C)c3=O)c3ncccc23)C(=O)O)c(F)c1)C(F)(F)F [Example 184] |  | EC50 [2]: 0.9 nM
11 | 2,6-difluoro-4-(3-(trifluoromethyl)morpholino)benzoic acid [Example 81] | 6 | 
12 | COc1cc(F)cc(C(F)(F)F)c1-c1ccc(C[C@H](NC(=O)c2c(F)cccc2F)C(=O)O)c2cccnc12 (single isomer, unassigned) [Example 8] | 41.4 | 

More lines, main results first:

Row | EC50 [1] [nM] | Compound | also measured
13 | 0.6 | CC[C@@H](Nc1cc(F)c(C(=O)N[C@@H](Cc2ccc(-c3c(C(F)(F)F)c4cc(F)ccc4n(C)c3=O)c3ncccc23)C(=O)O)c(F)c1)C(F)(F)F [Example 124] | 
14 | 60.6 | (S)-3-(8-(2-chloro-4-cyanophenyl)quinolin-5-yl)-2-(2,6-difluoro-4-((R)-3-(trifluoromethyl)morpholino)benzamido)propanoic acid [Example 148] | 
